# From patent publication US10745434B2, “Uridine phosphoramide prodrug, preparation method therefor, and medicinal uses thereof” (priority 2016, dated 2020)
# Read-outs that look alike come from different tables or passages of the source.
# Experiments:
# HCV GT1b replicons = assay: Anti-HCV replicon activity, HCV GT1b stable transfection replicon cell line (luciferase); format: cell-based, hepatitis C virus (HCV) genotype (GT) 1b
# Procedure: (§1) A hepatitis C virus (HCV) genotype (GT) 1b stable transfection replicon cell line system was used to determine the inhibitory activity of the compounds to the HCV GT1b replicons. In this experiment, the compound 06a (GS-7977) was used as a control compound to monitor the experimental quality.
# (§2) [drawing 4] 2. Compound dilution: 20 mM mother liquor was prepared by using 100% DMSO, and the compound DMSO mother liquor was diluted and added to a 96-well experiment plate. The final concentration of the DMSO was 0.5%. In in-vitro anti-HCV activity experiments and cytotoxicity experiments, all compounds had the initial concentration of 20 microns, and were diluted by 5 times of dilution. The final concentration of the DMSO of 6 concentrations were 0.5%. 3. Cell treatment: HCV-1b replicon sub-cells were added to the above 96-well cell plate (8,000 cells/well), and then placed into an incubator of 37 DEG C. and 5% CO2 for culturing for 3 days. 4. Cell activity detection: a cell growth fluorescent titration detection reagent was added to each well; after the cells were cultured for 1 hour in the incubator of 37 DEG C. and 5% CO2, a spectrophotometer detection system Envision was used to detect a Fluorescence signal value. The original data, i.e, relative fluorescence units (RFUs), was used for the calculation of the cell toxicity of the compounds. 5. Anti-HCV replicon activity detection: a luciferase light-emitting substrate bright-GLO was added to each well, and a chemiluminescence detection system Envision was used for detecting a Luminescence signal value in 5 minutes. The original data, i.e., relative light units (RLUs), was used for the calculation of the inhibitory activity of the compounds. 6. Data processing: the RFUs obtained in step 1.3 were processed into a cell activity percentage by using the following formula: […]
# The RLUs obtained in step 1.4 were processed into a inhibition percentage by using the following formula:
# [formula] *CPD: signal values of compound wells HPE (high percent effect): 100% effective action control well signal value, with only DMEM culture solution in the wells; The ZPE (zero percent effect): noneffective control well signal value, with 0.5% DMSO to replace the compound.
# (§3) The cell activity percentage and the inhibition percentage were respectively imported into GraphPad Prism software for data processing to obtain curves corresponding to the compounds and their values of cytotoxicity (CC50) and inhibitory activity (ECD50) to the HCV replicons.
# [1] = test system: HCV-1b replicon sub-cells; assay: Cytotoxicity in HCV-1b replicon cells (cell growth fluorescent titration); format: cell-based; settings: HCV GT1b replicon cells, 3 days
# Procedure: as §1, §2, §3
# [2] = Rat in-vivo metabolism and tissue distribution: metabolite TSL1100 in liver after intragastric administration; design: species or system SD rats; settings: rat PO 50 mg/kg
# Procedure: 18 SD rats (male, 6-9 weeks old, purchased from Vital River Animal center) were divided into 6 groups randomly, 3 rats in each group, fasted for 12 hours first before administration, freely fed with water during the fasting period. After the administration is carried out for 4 hours, the fasting was ended. 50 mg compound was precisely weighed on a balance, and 95% (0.5% of cd))/5% solutol aqueous solution was added and uniformly mixed, and subjected to ultrasonic treatment for later use. The drug delivery dose was 50 mg/kg; the drug delivery concentration was […]; and the drug delivery volume was […].
# The sample collection scheme: taking blood and liver tissues after carrying out intragastric administration on rats for 1 h, 2 h, 3 h, 6 h, 12 h and 24 h.
# The liver tissue sample treatment method: taking a rat tissue sample in a plastic EP tube, and adding 5 times (w:v) 1.75 mL MeOH and 5 μL 50% KOH aqueous solution together with 0.75 mL 268 mM EDTA solution to prepare a solution, uniformly mixing and taking 60 μL sample, adding a 240 μL internal standard solution for mixing, carrying out vortex oscillation for 2 minutes, and centrifuging for 10 minutes (13000 rpm and 4 DEG C.), taking 30 μL of supernate, adding 30 μL of water, carrying out vortex mixing, centrifuging at 4 DEG C., and then taking 5 μL supernate for […] analysis.
# LC-MS/MS-O (API 4000) liquid mass spectrometer and chromatographic column are adopted: ACQUITY UPLC BEH C18 130 Å 1.7 μm 2.1×50 mm the composition com: and tomitamide was adopted as an internal standard compound, gradient elution analysis is carried out after the sample is fed into the sample, and the internal standard is recorded respectively, the retention time and the peak area of the to-be-tested compound and the metabolite TSL 1100, the software phoenix winnonlin 6.2. The method is analyzed by an srms quantitative detection method.
# [3] = Cytotoxicity in HCV-1b replicon cells (cell growth fluorescent titration); format: cell-based; settings: HCV genotype 1b stably transfected replicon cells, HCV GT1b replicon cells
# Procedure: as §1, §2, §3
# [4] = Simulated gastric liquid stability; format: in vitro ADME
# Human plasma stability = format: in vitro ADME; settings: test concentration 2 μM
# Procedure: 3. Human Plasma Stability (Test Concentration: 2 μM), See Table 4.
# Human liver S9 stability = format: in vitro ADME; settings: human liver S9, test concentration 1 μM
# Procedure: 4. Human Liver S9 Stability Parameters (Test Concentration: 1 μM), See Table 5.
# [5] = Simulated intestinal fluid stability; format: in vitro ADME; settings: test concentration 10 μM
# Procedure: 2. Simulated Intestinal Fluid Stability (Test Concentration: 10 μM), See Table 3: […]
# [6] = target: T1, herg potassium ion channel (Homo sapiens, UniProt Q12809); assay: In vitro cardiotoxicity, hERG manual patch clamp in CHO cells; format: cell-based
# T1 construct: host or cells: CHO cells stably expressing hERG
# T1 sequence (Q12809 whole entry): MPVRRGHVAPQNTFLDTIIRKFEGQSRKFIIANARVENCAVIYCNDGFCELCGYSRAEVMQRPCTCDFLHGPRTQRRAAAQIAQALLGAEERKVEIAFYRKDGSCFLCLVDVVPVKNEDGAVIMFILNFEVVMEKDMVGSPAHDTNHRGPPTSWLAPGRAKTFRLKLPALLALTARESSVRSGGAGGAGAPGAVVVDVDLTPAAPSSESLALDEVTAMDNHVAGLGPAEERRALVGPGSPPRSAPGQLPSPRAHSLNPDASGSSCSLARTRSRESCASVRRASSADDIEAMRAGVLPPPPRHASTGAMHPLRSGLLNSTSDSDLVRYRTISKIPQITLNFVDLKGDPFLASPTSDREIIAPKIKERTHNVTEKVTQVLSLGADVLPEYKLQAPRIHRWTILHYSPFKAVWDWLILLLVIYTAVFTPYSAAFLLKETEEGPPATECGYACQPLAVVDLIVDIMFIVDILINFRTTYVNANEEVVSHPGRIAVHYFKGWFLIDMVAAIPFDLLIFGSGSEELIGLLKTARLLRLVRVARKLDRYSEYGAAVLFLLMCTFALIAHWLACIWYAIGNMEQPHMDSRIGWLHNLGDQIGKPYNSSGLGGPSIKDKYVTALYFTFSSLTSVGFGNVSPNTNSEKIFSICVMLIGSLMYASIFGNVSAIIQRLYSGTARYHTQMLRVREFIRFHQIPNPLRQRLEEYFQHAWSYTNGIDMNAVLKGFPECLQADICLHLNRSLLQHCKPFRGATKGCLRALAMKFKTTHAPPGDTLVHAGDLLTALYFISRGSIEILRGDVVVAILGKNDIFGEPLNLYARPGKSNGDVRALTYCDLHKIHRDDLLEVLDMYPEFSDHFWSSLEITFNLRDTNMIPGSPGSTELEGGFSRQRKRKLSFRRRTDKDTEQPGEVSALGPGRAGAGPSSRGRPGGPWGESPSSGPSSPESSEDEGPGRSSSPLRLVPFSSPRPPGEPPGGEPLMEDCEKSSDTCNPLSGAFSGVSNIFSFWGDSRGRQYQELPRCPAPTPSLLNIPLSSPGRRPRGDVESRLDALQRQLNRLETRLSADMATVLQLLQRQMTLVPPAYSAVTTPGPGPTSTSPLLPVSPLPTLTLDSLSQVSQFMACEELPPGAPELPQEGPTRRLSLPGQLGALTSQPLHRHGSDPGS
# Procedure: The experiment adopted CHO cells which can stably express the herg potassium ion channel from AVivaBiosciences company, wherein the cells were incubated in a constant-humidity environment at the temperature of 37 DEG C. with 5% CO2.
# The compounds were tested on a Multiclamp patch-clamp amplifier at room temperature; the output signals were digitized by using a DLigital 1440 A/D-D/A board; the PCLAMP 10 software was used for recording and controlling. The minimum sealing resistance was set to 500 MOhms and the minimum specific hERG current was set to 0.4 nA for quality control.
# Clampfit (V10.2, Molecular Devices), Excel 2003 and GraphPad Prism 5.0 were used for data analysis.
# [7] = HCV GT1b replicons, 3 days, maximum test concentration 20 μM, read-out: EC50 anti-HCV replicon activity
# [8] = Hepatitis C virus, GT1B, 72 h, read-out: EC50 anti-HCV replicon activity, HCV GT1b replicons, 3 days, maximum test concentration 20 μM
# [9] = read-out: EC50 anti-HCV replicon activity, HCV GT1b replicons, 3 days, maximum test concentration 20 μM
compound,measurement,setting,value
"CC(C)OC(=O)[C@H](C)NP(=O)(OCc1ccccc1)OC[C@H]1O[C@@H](n2ccc(=O)[nH]c2=O)[C@](C)(F)[C@@H]1O (single isomer, unassigned) [Compound 01a]",EC50,HCV GT1b replicons; [7],0.301 µM
same,CC50,[1],> 20 µM
same,AUCExtra,[2],4.74%
same,AUMCExtra,[2],18.9%
same,Tlast,[2],24.0 h
Cc1ccc(COP(=O)(N[C@@H](C)C(=O)OC(C)C)OC[C@H]2O[C@@H](n3ccc(=O)[nH]c3=O)[C@](C)(F)[C@@H]2O)cc1 (some centres unmarked) [Compound 04],EC50,HCV GT1b replicons; [8],10 to 20 µM
same,EC50,HCV GT1b replicons; [9],15.2 µM
same,CC50 at 3 days,[3],> 20 µM
COc1ccc2[nH]c([S+]([O-])Cc3ncc(C)c(OC)c3C)nc2c1 (centres unmarked) [Omeprazole],% 0 h residual percentage,[4]; 20 μM,100%
same,% 1 h residual percentage,[4]; 20 μM,5.24%
same,% 2 h residual percentage,[4]; 20 μM,2.76%
same,% 6 h residual percentage,[4]; 20 μM,0.20%
same,% 24 h residual percentage,[4]; 20 μM,0.00%
CC(C)OC(=O)C(C)NP(=O)(OCc1ccccc1)OCC1OC(n2ccc(=O)[nH]c2=O)C(C)(F)C1O (mixture of isomers) [Compound 01],EC50,HCV GT1b replicons; [7],6.12 µM
same,% 0 min residual percentage,Human plasma stability,100%
same,% 10 min residual percentage,Human plasma stability,98.9%
same,% 30 min residual percentage,Human plasma stability,81.7%
same,% 60 min residual percentage,Human plasma stability,80.9%
same,% 120 min residual percentage,Human plasma stability,74.9%
same,CLlint(s9),Human liver S9 stability,7.2 µL/min/mg
same,T1/2,Human liver S9 stability,96.6 min
same,Remaining % (NCF = 1 h),Human liver S9 stability,67.4%
same,Remaining % (T = 1 h),Human liver S9 stability,56.2%
same,CLlint(s9),Human liver S9 stability; scaled per kg,25.2 µL/min/kg
same,% 0 h residual percentage,[5],100%
same,% 1 h residual percentage,[5],1.69%
same,% 2 h residual percentage,[5],0.08%
same,% 6 h residual percentage,[5],0.00%
same,% 24 h residual percentage,[5],0.00%
same,CC50,[1],> 20 µM
same,% 0 h residual percentage,[4]; test concentration 10 μM,100%
same,% 1 h residual percentage,[4]; test concentration 10 μM,96.81%
same,% 2 h residual percentage,[4]; test concentration 10 μM,105.99%
same,% 6 h residual percentage,[4]; test concentration 10 μM,100.76%
same,% 24 h residual percentage,[4]; test concentration 10 μM,71.32%
CC(C)OC(=O)[C@H](C)N[P@](=O)(OC[C@H]1O[C@@H](n2ccc(=O)[nH]c2=O)[C@](C)(F)[C@@H]1O)Oc1ccccc1 [Patent compound 06a in 2010],EC50,HCV GT1b replicons; [8],0.719 µM
same,CC50 at 3 days,[3],> 3 µM
same,IC50,[6],> 10 µM
CCOc1ccc2ccc(=O)oc2c1 [7-Ethoxycumarin],CLlint(s9),Human liver S9 stability,194.2 µL/min/mg
same,half-life at 1 μM,Human liver S9 stability,3.6 min
same,Remaining % (NCF = 1 h),Human liver S9 stability,103.3%
same,Remaining % (T = 1 h),Human liver S9 stability,0.0%
same,CLlint(s9),Human liver S9 stability; scaled per kg,683.5 µL/min/kg
O=c1ccc2ccc(O)cc2o1 [7-Hydroxycoumarin],CLlint(s9),Human liver S9 stability,7.2 µL/min/mg
same,half-life at 1 μM,Human liver S9 stability,96.6 min
same,Remaining % (NCF = 1 h),Human liver S9 stability,67.4%
same,Remaining % (T = 1 h),Human liver S9 stability,56.2%
same,CLlint(s9),Human liver S9 stability; scaled per kg,25.2 µL/min/kg
"CC(C)OC(=O)[C@H](C)NP(=O)(OCc1ccccc1)OC[C@H]1O[C@@H](n2ccc(=O)[nH]c2=O)[C@](C)(F)[C@@H]1O (single isomer, unassigned) [Compound 01b]",EC50,HCV GT1b replicons; [7],9.15 µM
same,CC50,[1],> 20 µM
same,AUCExtra,[2],6.61%
same,AUMCExtra,[2],19.8%
same,Tlast,[2],12.0 h
CC(C)OC(=O)[C@H](C)NP(=O)(OC[C@H]1O[C@@H](n2ccc(=O)[nH]c2=O)[C@](C)(F)[C@@H]1O)Oc1ccccc1 (some centres unmarked) [Patent compound 06 in 2008],EC50,HCV GT1b replicons; [8],< 10 µM
same,EC50,HCV GT1b replicons; [9],9.82 µM
same,% 0 min residual percentage,Human plasma stability,100%
same,% 10 min residual percentage,Human plasma stability,78.8%
same,% 30 min residual percentage,Human plasma stability,70.9%
same,% 60 min residual percentage,Human plasma stability,72.0%
same,% 120 min residual percentage,Human plasma stability,65.3%
same,CLlint(s9),Human liver S9 stability,6.0 µL/min/mg
same,half-life at 1 μM,Human liver S9 stability,115 min
same,Remaining % (NCF = 1 h),Human liver S9 stability,64.0%
same,Remaining % (T = 1 h),Human liver S9 stability,58.6%
same,CLlint(s9),Human liver S9 stability; scaled per kg,21.1 µL/min/kg
same,% 0 h residual percentage,[5],100%
same,% 1 h residual percentage,[5],0.00%
same,% 2 h residual percentage,[5],0.00%
same,% 6 h residual percentage,[5],0.00%
same,% 24 h residual percentage,[5],0.00%
same,CC50 at 3 days,[3],> 20 µM
same,% 0 h residual percentage,[4]; test concentration 10 μM,100%
same,% 1 h residual percentage,[4]; test concentration 10 μM,95.19%
same,% 2 h residual percentage,[4]; test concentration 10 μM,98.47%
same,% 6 h residual percentage,[4]; test concentration 10 μM,84.08%
same,% 24 h residual percentage,[4]; test concentration 10 μM,49.36%
COc1ccc(COP(=O)(N[C@@H](C)C(=O)OC(C)C)OC[C@H]2O[C@@H](n3ccc(=O)[nH]c3=O)[C@](C)(F)[C@@H]2O)cc1 (some centres unmarked) [Compound 05],EC50,HCV GT1b replicons; [8],> 20 µM
same,CC50 at 3 days,[3],> 20 µM
COc1ccccc1COP(=O)(N[C@@H](C)C(=O)OC(C)C)OC[C@H]1O[C@@H](n2ccc(=O)[nH]c2=O)[C@](C)(F)[C@@H]1O (some centres unmarked) [Compound 03],EC50,HCV GT1b replicons; [8],> 20 µM
same,CC50 at 3 days,[3],> 20 µM
CC(C)[N+](C)(CCOC(=O)C1c2ccccc2Oc2ccccc21)C(C)C [Propantheline],% 0 min residual percentage,Human plasma stability,100%
same,% 10 min residual percentage,Human plasma stability,53.3%
same,% 30 min residual percentage,Human plasma stability,14.3%
same,% 60 min residual percentage,Human plasma stability,2.2%
same,% 120 min residual percentage,Human plasma stability,0.0%
O=C(O)CCCc1ccc(N(CCCl)CCCl)cc1 [Chlorambucil],% 0 h residual percentage,[5],100%
same,% 1 h residual percentage,[5],43.83%
same,% 2 h residual percentage,[5],3.91%
same,% 6 h residual percentage,[5],0.00%
same,% 24 h residual percentage,[5],0.00%
"Cc1ccccc1COP(=O)(N[C@@H](C)C(=O)OC(C)C)OC[C@H]1O[C@@H](n2ccc(=O)[nH]c2=O)[C@](C)(F)[C@@H]1O (single isomer, unassigned) [Unresolved enantiomer 02 of patent compounds in 2013]",EC50,HCV GT1b replicons; [8],10 to 20 µM
same,EC50,HCV GT1b replicons; [9],17.7 µM
same,% 0 min residual percentage,Human plasma stability,100%
same,% 10 min residual percentage,Human plasma stability,73.3%
same,% 30 min residual percentage,Human plasma stability,69.5%
same,% 60 min residual percentage,Human plasma stability,62.8%
same,% 120 min residual percentage,Human plasma stability,58.8%
same,CLlint(s9),Human liver S9 stability,72.6 µL/min/mg
same,half-life at 1 μM,Human liver S9 stability,9.5 min
same,Remaining % (NCF = 1 h),Human liver S9 stability,64.7%
same,Remaining % (T = 1 h),Human liver S9 stability,1.1%
same,CLlint(s9),Human liver S9 stability; scaled per kg,255.6 µL/min/kg
same,% 0 h residual percentage,[5],100%
same,% 1 h residual percentage,[5],0.63%
same,% 2 h residual percentage,[5],0.08%
same,% 6 h residual percentage,[5],0.00%
same,% 24 h residual percentage,[5],0.00%
same,CC50 at 3 days,[3],> 20 µM
same,% 0 h residual percentage,[4]; test concentration 10 μM,100%
same,% 1 h residual percentage,[4]; test concentration 10 μM,82.70%
same,% 2 h residual percentage,[4]; test concentration 10 μM,82.45%
same,% 6 h residual percentage,[4]; test concentration 10 μM,74.80%
same,% 24 h residual percentage,[4]; test concentration 10 μM,41.56%
